Source: ChEMBL document CHEMBL5230089, “Small-Molecule Fms-like Tyrosine Kinase 3 Inhibitors: An Attractive and Efficient Method for the Treatment of Acute Myeloid Leukemia” (J Med Chem, 2020)
Values belong to the compound of their own block, whether it stands above or below them.

How the values were obtained:
MOLM-13 [1] = experiment: cells; details: Homo sapiens, MOLM-13, 72 h
MOLM-14 [2] = experiment: cells; details: Homo sapiens, MOLM-14, 72 h
BaF3 [3] = experiment: cells; details: Mus musculus, BaF3, 72 h
MV4-11 [4] = experiment: Antiproliferative activity against human MV4-11 cells assessed as reduction in cell proliferation measured after 24 hrs by MTT assay; assay type: functional, cell-based; details: MV4-11, 24 h
[5] = target: T1, Receptor-type tyrosine-protein kinase FLT3 (Homo sapiens, UniProt P36888); experiment: Inhibition of FLT3 (unknown origin) autophosphorylation expressed in human Leukemia cells; assay type: cell-based, Leukemia cell
T1 sequence (P36888 whole entry): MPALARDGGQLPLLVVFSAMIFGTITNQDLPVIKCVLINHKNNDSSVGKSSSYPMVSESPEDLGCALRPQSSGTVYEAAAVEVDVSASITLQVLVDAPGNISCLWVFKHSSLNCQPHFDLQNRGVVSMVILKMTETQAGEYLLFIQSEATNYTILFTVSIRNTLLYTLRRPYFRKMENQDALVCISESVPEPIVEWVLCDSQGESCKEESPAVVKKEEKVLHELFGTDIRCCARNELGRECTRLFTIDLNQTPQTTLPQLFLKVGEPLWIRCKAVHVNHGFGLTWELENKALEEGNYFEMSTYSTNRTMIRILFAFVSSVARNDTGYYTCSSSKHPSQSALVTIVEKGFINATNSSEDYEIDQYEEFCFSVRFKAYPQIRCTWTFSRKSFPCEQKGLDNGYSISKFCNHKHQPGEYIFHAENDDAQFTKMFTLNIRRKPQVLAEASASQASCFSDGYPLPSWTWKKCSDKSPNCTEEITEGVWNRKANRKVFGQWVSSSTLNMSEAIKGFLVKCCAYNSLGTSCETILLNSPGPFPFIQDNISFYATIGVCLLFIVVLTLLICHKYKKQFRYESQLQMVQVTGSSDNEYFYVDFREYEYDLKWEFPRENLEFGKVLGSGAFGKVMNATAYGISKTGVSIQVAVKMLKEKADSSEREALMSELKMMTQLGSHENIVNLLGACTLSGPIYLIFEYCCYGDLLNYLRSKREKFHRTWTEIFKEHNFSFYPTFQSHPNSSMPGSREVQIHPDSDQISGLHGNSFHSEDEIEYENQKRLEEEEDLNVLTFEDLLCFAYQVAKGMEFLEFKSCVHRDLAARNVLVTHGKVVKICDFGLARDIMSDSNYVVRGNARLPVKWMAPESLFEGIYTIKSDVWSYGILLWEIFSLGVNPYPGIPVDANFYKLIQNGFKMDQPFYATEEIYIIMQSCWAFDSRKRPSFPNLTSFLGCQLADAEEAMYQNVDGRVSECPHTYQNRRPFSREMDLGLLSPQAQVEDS

[6] = target: Receptor-type tyrosine-protein kinase FLT3 (Homo sapiens, UniProt P36888, ITD)
Aurora kinase A [7] = target: T2, Aurora kinase A (Homo sapiens, UniProt O14965); experiment: Inhibition of Aurora-A (unknown origin) by kinase-glo luminescent assay
T2 sequence (O14965 whole entry): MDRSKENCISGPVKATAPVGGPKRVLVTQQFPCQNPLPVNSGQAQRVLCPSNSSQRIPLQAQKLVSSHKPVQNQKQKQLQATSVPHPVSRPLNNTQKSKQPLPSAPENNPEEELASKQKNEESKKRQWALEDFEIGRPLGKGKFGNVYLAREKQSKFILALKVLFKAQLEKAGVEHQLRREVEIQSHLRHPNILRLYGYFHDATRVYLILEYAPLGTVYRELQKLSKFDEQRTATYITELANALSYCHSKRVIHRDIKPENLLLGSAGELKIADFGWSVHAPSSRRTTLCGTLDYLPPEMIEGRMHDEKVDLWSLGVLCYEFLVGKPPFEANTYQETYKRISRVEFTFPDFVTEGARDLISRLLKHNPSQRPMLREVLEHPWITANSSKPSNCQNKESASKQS

HL-60 = experiment: Growth inhibition of human HL-60 cells incubated for 4 days by WST assay; assay type: functional; details: HL-60, 96 h, time 4 day
[8] = target: Receptor-type tyrosine-protein kinase FLT3 (Homo sapiens, UniProt P36888, D835Y); experiment: Inhibition of FLT3-D835Y mutant (unknown origin)
MV4-11 [9] = experiment: Growth inhibition of human MV4-11 cells incubated for 72 hrs by CCK-8 assay; assay type: functional
Aurora kinase A [10] = target: T2, Aurora kinase A; experiment: Inhibition of Aurora-A (unknown origin)
MV4-11 [11] = experiment: cells; details: Homo sapiens, MV4-11, 48 h
Description: Antiproliferative activity against human MV4-11 cells assessed as reduction in cell viability after 48 hrs by Alamar Blue assay

MOLM-13 [12] = experiment: cells; details: Homo sapiens, MOLM-13, 72 h; remark: listed apart in the source
Description: Cytotoxicity against human MOLM-13 cells assessed as reduction in cell viability incubated for 72 hrs

MV4-11 [13] = experiment: Growth inhibition of human MV4-11 cells assessed as reduction in cell viability at 50 uM measured after 72 hrs by CCK8 assay; assay type: functional
[14] = target: T1, Receptor-type tyrosine-protein kinase FLT3; experiment: Inhibition of FLT3 (unknown origin)
RS4-11 = experiment: Growth inhibition human RS4-11 cell assessed as reduction in cell viability at 50 uM measured after 72 hrs by CCK8 assay; assay type: functional
MOLM-14 [15] = experiment: Growth inhibition of human MOLM-14 cells incubated for 72 hrs by CCK-8 assay; assay type: functional
MOLM-13 [16] = experiment: Growth inhibition of human MOLM-13 cells incubated for 72 hrs by CCK-8 assay; assay type: functional
MV4-11 [17] = experiment: Cytotoxicity activity against human MV4-11 cells assessed as reduction in cell viability measured after 48 hrs; assay type: functional, cell-based; details: MV4-11, 48 h
MOLM-13 [18] = experiment: Cytotoxicity activity against human MOLM-13 cells assessed as reduction in cell viability measured after 48 hrs; assay type: functional, cell-based; details: MOLM-13, 48 h
[19] = target: Tyrosine-protein kinase JAK2 (Homo sapiens, UniProt O60674); experiment: Inhibition of JAK2 (unknown origin) in presence of ATP
Tyrosine-protein kinase JAK2, sequence (O60674 whole entry): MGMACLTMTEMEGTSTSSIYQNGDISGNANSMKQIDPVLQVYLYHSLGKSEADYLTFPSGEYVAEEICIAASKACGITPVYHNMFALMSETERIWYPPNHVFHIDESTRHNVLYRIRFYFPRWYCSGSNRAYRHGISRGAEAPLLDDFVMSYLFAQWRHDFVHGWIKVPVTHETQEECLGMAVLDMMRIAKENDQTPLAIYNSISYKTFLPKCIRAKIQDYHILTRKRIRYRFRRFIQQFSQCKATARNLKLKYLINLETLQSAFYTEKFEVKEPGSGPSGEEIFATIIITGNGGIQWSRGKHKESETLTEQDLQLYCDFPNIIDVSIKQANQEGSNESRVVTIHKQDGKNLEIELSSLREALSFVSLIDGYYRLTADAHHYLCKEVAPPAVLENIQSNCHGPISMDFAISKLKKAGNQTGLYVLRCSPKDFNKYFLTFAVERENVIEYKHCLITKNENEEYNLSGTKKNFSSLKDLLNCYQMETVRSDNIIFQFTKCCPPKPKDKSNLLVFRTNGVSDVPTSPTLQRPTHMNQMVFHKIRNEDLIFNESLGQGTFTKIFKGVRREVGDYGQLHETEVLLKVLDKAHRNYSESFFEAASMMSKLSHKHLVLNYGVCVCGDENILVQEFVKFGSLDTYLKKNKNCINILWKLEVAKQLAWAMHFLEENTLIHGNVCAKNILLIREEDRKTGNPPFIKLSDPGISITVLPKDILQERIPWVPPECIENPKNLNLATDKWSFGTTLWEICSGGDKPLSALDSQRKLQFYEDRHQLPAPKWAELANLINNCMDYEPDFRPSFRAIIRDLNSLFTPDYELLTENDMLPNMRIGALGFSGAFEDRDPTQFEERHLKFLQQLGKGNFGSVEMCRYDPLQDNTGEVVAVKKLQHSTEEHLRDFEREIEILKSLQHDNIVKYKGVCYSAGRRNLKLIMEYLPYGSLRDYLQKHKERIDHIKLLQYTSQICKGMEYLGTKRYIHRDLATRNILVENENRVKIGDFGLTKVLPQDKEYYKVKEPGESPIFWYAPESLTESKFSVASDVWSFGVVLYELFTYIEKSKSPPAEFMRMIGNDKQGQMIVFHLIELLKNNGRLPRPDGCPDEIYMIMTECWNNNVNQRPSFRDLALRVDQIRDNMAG

MV4-11 [20] = experiment: Antiproliferative activity against human MV4-11 cells assessed as cell growth inhibition measured after 48 hrs by cell titer glo assay; assay type: functional, cell-based; details: MV4-11, 48 h
cells = details: Homo sapiens, TF cell, 72 h
BaF3 [21] = experiment: Antiproliferative activity against mouse BaF3 FLT3-D835 cells assessed as reduction in cell viability measured after 72 hrs by MTS assay; assay type: functional, cell-based; details: BaF3, 72 h

Structure (SMILES): COc1cc2c(N3CCN(C(=O)Nc4ccc(OC(C)C)cc4)CC3)ncnc2cc1OCCCN1CCCCC1 [TANDUTINIB]
IC50 (MOLM-13 [1]): 10 nM
IC50 (MOLM-14 [2]): 10 nM
IC50 (BaF3 [3]): 10 nM

Structure (SMILES): COc1ccc(C(=O)NC(=O)Nc2ccc3c(c2)NC(=O)/C3=C\c2[nH]c(C)c(C(=O)NCCN3CCCC3)c2C)c(F)c1
IC50 [6]: 0.5 nM
IC50 (Aurora kinase A [7]): 0.4 nM

Structure (SMILES): CC1=CC(=O)N(Nc2nc(-c3cccs3)nc3sc(C)c(C)c23)C1=O
IC50 [6]: 16 nM
GI50 (HL-60): > 10000 nM
IC50 [8]: 21 nM
GI50 (MV4-11 [9]): 216 nM

Structure (SMILES): CC(=O)OC[C@H]1O[C@@H](N2N=C(C(F)(F)F)/C(=N\Nc3cccc(C(F)(F)F)c3)C2=O)[C@H](OC(C)=O)[C@@H](OC(C)=O)[C@@H]1OC(C)=O
IC50 (MV4-11 [17]): 4700 nM
IC50 (MOLM-13 [18]): 4040 nM

Structure (SMILES): CCc1nc(C(N)=O)c(Nc2ccc(N3CCC(N4CCN(C)CC4)CC3)c(OC)c2)nc1NC1CCOCC1 [GILTERITINIB]
IC50 (cells): 1.4 nM
IC50 (MOLM-14 [2]): 1.8 nM
IC50 (BaF3 [21]): 0.7 nM

Structure (SMILES): Cc1cc2ncc(-c3ccc(NC(=O)Nc4cc(C(C)(C)C)on4)cc3)nc2cc1C
IC50 [6]: 71 nM

Next, values leading:

IC50 (MV4-11 [4]): < 0.25 nM
IC50 [5]: 0.1 nM
Structure (SMILES): CNC(=O)[C@@]1(N)C[C@H]2O[C@]1(C)n1c3ccccc3c3c4c(c5c6ccccc6n2c5c31)C(=O)NC4

IC50 (Aurora kinase A [10]): 15 nM
IC50 [6]: 67 nM
IC50 (MV4-11 [11]): 7 nM
IC50 (MOLM-13 [12]): 7 nM
Structure (SMILES): CC(C)(C)c1cc(NC(=O)Nc2ncc(CCNc3ncnc4[nH]c(-c5ccccc5)cc34)s2)no1

GI50 (MV4-11 [13]): 260 nM
IC50 [14]: 0.57 nM
GI50 (RS4-11): 4860 nM
Structure (SMILES): O=C(c1ccc(CN2CCCCC2)cc1)N1CCc2nc(-c3cc4cc(F)ccc4[nH]c3=O)[nH]c2C1

GI50 (MOLM-14 [15]): 42 nM
GI50 (MV4-11 [9]): 22 nM
GI50 (MOLM-13 [16]): 21 nM
Structure (SMILES): CN(C)CC(=O)N1CCC[C@@H](n2nc(-c3ccc(Oc4ccccc4)cc3)c3c(N)ncnc32)C1

IC50 [19]: 67.2 nM
Structure (SMILES): Cn1c2ccccc2c2c3c(c4c5ccccc5n(CCC#N)c4c21)CNC3=O [GO-6976]

IC50 [6]: 0.41 nM
IC50 (MV4-11 [20]): 37 nM
Structure (SMILES): COc1cc(Nc2nc3cccc(-c4cccc(C(N)=O)c4)c3o2)ccc1N1CCNCC1

IC50 [6]: 6.5 nM
IC50 (MV4-11 [11]): 0.49 nM
IC50 (MOLM-14 [2]): 0.72 nM
Structure (SMILES): Cc1ccc(C(=O)Nc2ccc(CN3CCN(C)CC3)c(C(F)(F)F)c2)cc1C#Cc1c(N)ncc2ccc(Cl)cc12
